Earlier results in patent US11395811B2, “Compositions comprising a fatty acid oil mixture comprising EPA and DHA in free acid form and a surfactant, and methods and uses thereof” (ProNova BioPharma Norge AS, priority 2009, dated 2022).

conditions: Brij surfactants, Table 2

Row | HLB Value | Substance
1 | 9.7 | Polyoxyethylene(4) lauryl ether [Brij ® 30]
2 | 12.4 | polyethylene glycol oleyl ether [Brij ® 96V]
3 | 4.9 | polyoxyethylene (2) stearyl ether [Brij ® 72]
4 | 5.3 | Polyoxyethylene (2) cetyl ether [Brij ® 52]
5 | 18 | polyoxyethylene (100) stearyl ether [Brij ® 700]
6 | 4 | Polyoxyethylene (2) oleyl ether [Brij ® 93]
7 | 4.9 | Polyoxyethylene (2) oleyl ether [Brij ® 92V]

same assay, conditions: Myrj surfactants, Table 5

Row | Substance | HLB Value
8 | polyoxyethylene monostearate [Myrj ® 53] | 17.9
9 | polyoxyethylene monostearate [Myrj ® 49] | 15.0
10 | polyoxyethylene monostearate [Myrj ® 52] | 16.9
11 | polyoxyethylene monostearate [Myrj ® 45] | 11.1

same assay, conditions: Tween surfactants, Table 4

Row | Substance | HLB Value
12 | polyoxyethylene (20) sorbitan monolaurate [Tween ® 20] | 16.0
